How the values were obtained:
Assay in all cases: relative viability (nuclei count vs DMSO), 5 days (fraction); higher = more cells survive
[1] = tested on: NCI-H1355
How it was run: (§1)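 Lung cancer cell lines were pin-tool dosed in 1536-well plates on the day after seeding, with either a lone drug or a fixed anchor-drug dose plus five library-drug doses (not always all listed) in √10 steps. Nuclei were counted on 4× images after 5 days. Relative viability is the ratio of treated-well to vehicle-well nuclei counts, with each value a median of duplicate plates.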

[2] = tested on: NCI-H2170
How it was run: as §1

[3] = tested on: NCI-H3122
How it was run: as §1

[4] = tested on: NCI-H1651
How it was run: as §1

[5] = tested on: NCI-H2347
How it was run: as §1

[6] = tested on: SW 900
How it was run: as §1

[7] = tested on: NCI-H322M
How it was run: as §1

[8] = tested on: LCLC-103H
How it was run: as §1

[9] = tested on: NCI-H661
How it was run: as §1

[10] = tested on: NCI-H460
How it was run: as §1

[11] = tested on: NCI-H650
How it was run: as §1

[12] = tested on: LXF-289
How it was run: as §1

[13] = tested on: SK-MES-1
How it was run: as §1

[14] = tested on: RERF-LC-KJ
How it was run: as §1

[15] = tested on: NCI-H1563
How it was run: as §1

[16] = tested on: NCI-H596
How it was run: as §1

[17] = tested on: NCI-H1755
How it was run: as §1

[18] = tested on: NCI-H520
How it was run: as §1

[19] = tested on: NCI-H727
How it was run: as §1

[20] = tested on: PC-14
How it was run: as §1

[21] = tested on: NCI-H441
How it was run: as §1

[22] = tested on: NCI-H1915
How it was run: as §1

Compound `Oc1nc(-c2ccc(C(F)(F)F)cc2)nc2c1CSCC2` [XAV939] + COc1cc2c(Oc3ccc(NC(=O)C4(C(=O)Nc5ccc(F)cc5)CC4)cc3F)ccnc2cc1OCCCN1CCOCC1 [Foretinib] (partner 0.25 µM) has a relative viability ([1]; first compound 0.08 µM) of 0.946, a relative viability ([1]; first compound 0.253 µM) of 0.839 and a relative viability ([1]; first compound 0.8 µM) of 0.786. The relative viability ([1]; first compound 2.53 µM) was 0.619, the relative viability ([2]; first compound 0.08 µM) was 1.03 and the relative viability ([2]; first compound 0.253 µM) was 1.01. The relative viability ([2]; first compound 0.8 µM) was 0.979, the relative viability ([2]; first compound 2.53 µM) was 0.864 and the relative viability ([3]; first compound 0.08 µM) was 0.926. For the same compound, the relative viability ([3]; first compound 0.253 µM) was 0.918, the relative viability ([3]; first compound 0.8 µM) was 0.942 and the relative viability ([3]; first compound 2.53 µM) was 0.909. It also gave a relative viability ([4]; first compound 0.08 µM) of 0.786, a relative viability ([4]; first compound 0.253 µM) of 0.705 and a relative viability ([4]; first compound 0.8 µM) of 0.826. It also gave a relative viability ([4]; first compound 2.53 µM) of 0.768, a relative viability ([5]; first compound 0.08 µM) of 0.797 and a relative viability ([5]; first compound 0.253 µM) of 0.803. It also gave a relative viability ([5]; first compound 0.8 µM) of 0.786, a relative viability ([5]; first compound 2.53 µM) of 0.354 and a relative viability ([6]; first compound 0.08 µM) of 0.848. The relative viability ([6]; first compound 0.253 µM) was 0.765, the relative viability ([6]; first compound 0.8 µM) was 0.767 and the relative viability ([6]; first compound 2.53 µM) was 0.82. The relative viability ([7]; first compound 0.08 µM) was 1.11, the relative viability ([7]; first compound 0.253 µM) was 0.921 and the relative viability ([7]; first compound 0.8 µM) was 0.778. The relative viability ([7]; first compound 2.53 µM) was 0.609, the relative viability ([8]; first compound 0.08 µM) was 0.853 and the relative viability ([8]; first compound 0.253 µM) was 0.643. For the same compound, the relative viability ([8]; first compound 0.8 µM) was 0.748, the relative viability ([8]; first compound 2.53 µM) was 0.659 and the relative viability ([9]; first compound 0.08 µM) was 1.01. The relative viability ([9]; first compound 0.253 µM) was 0.991, the relative viability ([9]; first compound 0.8 µM) was 0.993 and the relative viability ([9]; first compound 2.53 µM) was 0.929. It also gave a relative viability ([10]; first compound 0.08 µM) of 1.01, a relative viability ([10]; first compound 0.253 µM) of 0.926 and a relative viability ([10]; first compound 0.8 µM) of 0.999. For the same compound, the relative viability ([10]; first compound 2.53 µM) was 0.922, the relative viability ([11]; first compound 0.08 µM) was 1.16 and the relative viability ([11]; first compound 0.253 µM) was 0.991. The relative viability ([11]; first compound 0.8 µM) was 1.09, the relative viability ([11]; first compound 2.53 µM) was 0.857 and the relative viability ([12]; first compound 0.08 µM) was 0.985. It also gave a relative viability ([12]; first compound 0.253 µM) of 0.95, a relative viability ([12]; first compound 0.8 µM) of 0.967 and a relative viability ([12]; first compound 2.53 µM) of 0.988. For the same compound, the relative viability ([13]; first compound 0.08 µM) was 1.02, the relative viability ([13]; first compound 0.253 µM) was 0.841 and the relative viability ([13]; first compound 0.8 µM) was 0.864. For the same compound, the relative viability ([13]; first compound 2.53 µM) was 0.82, the relative viability ([14]; first compound 0.08 µM) was 0.781 and the relative viability ([14]; first compound 0.253 µM) was 0.738. The relative viability ([14]; first compound 0.8 µM) was 0.792, the relative viability ([14]; first compound 2.53 µM) was 0.681 and the relative viability ([15]; first compound 0.08 µM) was 1.02. It also gave a relative viability ([15]; first compound 0.253 µM) of 0.905, a relative viability ([15]; first compound 0.8 µM) of 0.831 and a relative viability ([15]; first compound 2.53 µM) of 0.678. It also gave a relative viability ([16]; first compound 0.08 µM) of 0.814, a relative viability ([16]; first compound 0.253 µM) of 0.874 and a relative viability ([16]; first compound 0.8 µM) of 0.84. The relative viability ([16]; first compound 2.53 µM) was 0.797, the relative viability ([17]; first compound 0.08 µM) was 0.891 and the relative viability ([17]; first compound 0.253 µM) was 0.787. The relative viability ([17]; first compound 0.8 µM) was 0.815, the relative viability ([17]; first compound 2.53 µM) was 0.809 and the relative viability ([18]; first compound 0.08 µM) was 0.781. It also gave a relative viability ([18]; first compound 0.253 µM) of 0.694, a relative viability ([18]; first compound 0.8 µM) of 0.677 and a relative viability ([18]; first compound 2.53 µM) of 0.626. It also gave a relative viability ([19]; first compound 0.08 µM) of 0.997, a relative viability ([19]; first compound 0.253 µM) of 0.774 and a relative viability ([19]; first compound 0.8 µM) of 0.821. For the same compound, the relative viability ([19]; first compound 2.53 µM) was 0.928, the relative viability ([20]; first compound 0.08 µM) was 0.945 and the relative viability ([20]; first compound 0.253 µM) was 0.869. It also gave a relative viability ([20]; first compound 0.8 µM) of 0.885, a relative viability ([20]; first compound 2.53 µM) of 0.905 and a relative viability ([21]; first compound 0.08 µM) of 1.15. For the same compound, the relative viability ([21]; first compound 0.253 µM) was 0.891, the relative viability ([21]; first compound 0.8 µM) was 1.19 and the relative viability ([21]; first compound 2.53 µM) was 1.02. For the same compound, the relative viability ([22]; first compound 0.08 µM) was 1.18, the relative viability ([22]; first compound 0.253 µM) was 1.11 and the relative viability ([22]; first compound 0.8 µM) was 1.08. The relative viability ([22]; first compound 2.53 µM) was 1.03.
